Results on one compound are retold here after patent US20150374394A1, “SONOLYSIS WITH BIODEGRADABLE NANOPARTICLES” (THE BOARD OF TRUSTEES OF THE UNIVERSITY OF ARKANSAS, priority 2012, published 2015).

Molecules are shown by their SMILES.

This assay has as its system clots formed from pooled rabbit plasma with rabbit blood cells. The experiment in a line: In vitro sonothrombolysis (STBL) of clots with MBs, CPDL, tPA and/or 450 nm StNPs, pulsed 1 MHz ultrasound. To be noted: pulsed 1 MHz ultrasound 15 min, in bovine calf serum, 0.5 mL/min; control ultrasound alone; 3 μm MBs, 0.1 mg/ml tPA, 0.06% w/V CPDL nanoemulsion. On the procedure:
FIG. 1 depicts a graph showing the potentiation of sonothrombolysis (STBL) efficacy by microbubbles (MBs) and/or a nanoemulsion of cyclopentadecanolide with or without tissue plasminogen activator (tPA). […] STBL was performed with fibrin-rich clots (see Example 2) using pulsed, 1 MHz ultrasound for 15 min. The MBs, tPA, StNPs etc. were suspended in bovine calf serum and introduced at a flow rate of 0.5 mL/min. STBL efficacy is reported as % clot lysis. Abbreviations: US=ultrasound; MBs=microbubbles; CPDL=cyclopentadecanolide; StNPs=starch nanoparticles; tPA=tissue plasminogen activator.
The clots used in these experiments were formed by mixing pooled rabbit plasma with rabbit blood cells (final volume equal to 2 mL; the volume of whole rabbit blood from which the cells were obtained), incubating this mixture for 24 h at 37° C. and then curing the formed clots for 24 h at 5° C. […] The StNPs were diluted to have an Optical Density reading at 530 nm (OD530) of 1.0. […] STBL efficacy was measured as the percent of the initial clot mass that was lost from the clot during the 15 min treatment time.

Consider `O=C1CCCCCCCCCCCCCCO1` [CPDL, cyclopentadecanolide], for which the “STBL efficacy (FIG. 1), in words” value is reported as “improved STBL efficacy markedly”.
